Test results from article PMC7377239, “Cardiovascular Effects of Polychlorinated Biphenyls and Their Major Metabolites” (Environmental Health Perspectives, 2020).
Where two headings read alike, the source gives them in different places.

Experiments:
[1] = tested on: iCell cardiomyocytes (human iPSC-derived cardiomyocytes); assay: Intracellular Ca2+ flux / beating parameters in iCell cardiomyocytes (FLIPR tetra), 90 min or 24 h; assay type: cell-based; conditions: for activity at 0.01 µM / activity at 0.1 µM / activity at 1 µM / activity at 10 µM / activity at 100 µM: Homo sapiens, Cardiomyocyte, 0.00 µM = 100.00; for activity at 0.1 µM: 0.10 µM; for inotropic effect (cell beating parameters): iPSC-CMs, concentration-response 0.01-100 μM, 90 min and 24 h
Procedure, shortened: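 Gelatin-plated iCell cardiomyocytes (5,000/well) were dye-loaded for 2 h at 37 °C, then exposed for 90 min or 24 h to PCBs/metabolites (5× plates at 0.05–500 µM; 0.5% DMSO final) in triplicate. Ca2+ flux was read for 100 s at 8 Hz and 37 °C. Peak height, frequency, spacing CV and decay/rise ratio were vehicle-normalized and fitted with a four-parameter logistic model, with POD set at 1 SD of vehicle.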

ryanodine receptor (RyR) = tested on: ryanodine receptor (RyR); design: method as in Wong et al. 2001, 1997; Wong and Pessah 1997; conditions: mechanism involving the ryanodine receptor; ref Wong et al. 2001, 1997; Wong and Pessah 1997; cited from earlier work
zebrafish = tested on: zebrafish; design: method as in Li et al. 2014; Teixidó et al. 2019; conditions: ref Li et al. 2014; Teixidó et al. 2019; cited from earlier work
[2] = tested on: porcine pulmonary artery–derived EC; design: method as in Hennig et al. 2002, 2005; Toborek et al. 1995; conditions: ref Hennig et al. 2002, 2005, Toborek et al. 1995; cited from earlier work
[3] = 1.5 h, 90min, read-out: cm.amp.avg.90min
[4] = 1.5 h, 90min, read-out: cm.amp.cv.90min
[5] = 1.5 h, 90min, read-out: cm.bpm.90min
[6] = 1.5 h, 90min, read-out: cm.decay.rise.90min
[7] = 1.5 h, 90min, read-out: cm.spacing.cv.90min
[8] = 24 h, 24hrs, read-out: cm.amp.avg.24hrs
[9] = 24 h, 24hrs, read-out: cm.amp.cv.24hrs
[10] = 24 h, 24hrs, read-out: cm.bpm.24hrs
[11] = 24 h, 24hrs, read-out: cm.decay.rise.24hrs
[12] = 24 h, 24hrs, read-out: cm.spacing.cv.24hrs

Structure (SMILES): Clc1cc(Cl)c(-c2cc(Cl)c(Cl)cc2Cl)cc1Cl [PCB153]
- activity at 0.01 µM [1, 3]: 105%
- activity at 0.01 µM [1, 4]: 113%
- activity at 0.01 µM [1, 5]: 107%
- activity at 0.01 µM [1, 6]: 97.7%
- activity at 0.01 µM [1, 7]: 119%
- activity at 0.1 µM [1, 3]: 107%
- activity at 0.1 µM [1, 4]: 98.7%
- activity at 0.1 µM [1, 5]: 97.8%
- activity at 0.1 µM [1, 6]: 100%
- activity at 0.1 µM [1, 7]: 102%
- activity at 1 µM [1, 3]: 108%
- activity at 1 µM [1, 4]: 121%
- activity at 1 µM [1, 5]: 103%
- activity at 1 µM [1, 6]: 92.5%
- activity at 1 µM [1, 7]: 108%
- activity at 10 µM [1, 3]: 93.7%
- activity at 10 µM [1, 4]: 126%
- activity at 10 µM [1, 5]: 120%
- activity at 10 µM [1, 6]: 92.4%
- activity at 10 µM [1, 7]: 119%
- activity at 100 µM [1, 3]: 0%
- activity at 100 µM [1, 4]: 0%
- activity at 100 µM [1, 5]: 0%
- activity at 100 µM [1, 6]: 0%
- activity at 100 µM [1, 7]: 0%
- activity at 0.01 µM [1, 8]: 50.2%
- activity at 0.01 µM [1, 9]: 50.5%
- activity at 0.01 µM [1, 10]: 51.5%
- activity at 0.01 µM [1, 11]: 57.7%
- activity at 0.01 µM [1, 12]: 50.2%
- activity at 0.1 µM [1, 8]: 81.6%
- activity at 0.1 µM [1, 9]: 123%
- activity at 0.1 µM [1, 10]: 101%
- activity at 0.1 µM [1, 11]: 92.5%
- activity at 0.1 µM [1, 12]: 108%
- activity at 1 µM [1, 8]: 125%
- activity at 1 µM [1, 9]: 84.9%
- activity at 1 µM [1, 10]: 99.3%
- activity at 1 µM [1, 11]: 102%
- activity at 1 µM [1, 12]: 97.8%
- activity at 10 µM [1, 8]: 122%
- activity at 10 µM [1, 9]: 120%
- activity at 10 µM [1, 10]: 129%
- activity at 10 µM [1, 11]: 93%
- activity at 10 µM [1, 12]: 121%
- activity at 100 µM [1, 8]: 0%
- activity at 100 µM [1, 9]: 0%
- activity at 100 µM [1, 10]: 0%
- activity at 100 µM [1, 11]: 0%
- activity at 100 µM [1, 12]: 0%

Structure (SMILES): Clc1ccc(-c2ccccc2)cc1 [PCB 3, 4-chlorobiphenyl]
- inotropic effect (cell beating parameters) [1]: positive inotropic effects

Structure (SMILES): Clc1ccc(Cl)c(-c2c(Cl)ccc(Cl)c2Cl)c1 [PCB 95, 2,2′,3,5′,6-pentachlorobiphenyl]
- cellular calcium release (ryanodine receptor (RyR)): sensitizing cellular calcium release

Structure (SMILES): Clc1ccc(-c2cc(Cl)c(Cl)c(Cl)c2)cc1Cl [PCB 126, 3,3′,4,4′,5-pentachlorobiphenyl]
- cardiovascular toxicity in zebrafish (zebrafish): pericardial edema, cardiac looping defects, and circulatory failure
- EC toxicity [2]: potent inducers of EC toxicity
- inotropic effect (cell beating parameters) [1]: positive inotropic effects

Structure (SMILES): Clc1cc(Cl)c(-c2cc(Cl)c(Cl)cc2Cl)cc1Cl [PCB 153, 2,2′,4,4′,5,5′-hexachlorobiphenyl]
- EC toxicity [2]: much less potent
